Test system: activated caspases
Assay: Cell based apoptosis assay (FLICA FAM-VAD-FMK staining, gravity washing, flow cytometry)
Conditions: cells treated 2 hours at 37° C with 10, 0.63, 0.06 microMolar Staurosporine vs non-induced control
Description: Cell based apoptosis assay was performed using gravity based filtration.
Cells were treated with increasing concentration of well-known apoptosis inducer (Staurosporine) for 2 hours at 37° C. After induction, cells were treated with FLICA. Unbound FLICAs were removed from the nonapoptotic cells by gravity washing the cells with wash buffer 4 times. After gravity washing cells labeled with FLICAs (FAM-VAD-FMK, pan-caspases FLICA) was examined by flow cytometry.
Shown in FIGS. 10A and B are flow cytometric histograms of FAM-VAD-FMK stained cells from induced (10, 0.63, 0.06 microMolar of Staurosporine) and non-induced control samples.
Notice the dose response.

## CN[C@@H]1C[C@H]2O[C@@](C)([C@@H]1OC)n1c3ccccc3c3c4c(c5c6ccccc6n2c5c31)C(=O)NC4 [Staurosporine]
  apoptotic cell population (FAM-VAD-FMK percent positive population): Increase in apoptotic cell population
